Experimental data taken from patent US9499495B2, “Quinazolines and azaquinazolines as dual inhibitors of RAS/RAF/MEK/ERK and PI3K/AKT/PTEN/mTOR pathways” (Asana Biosciences, LLC, priority 2013, dated 2016).

Assays:
pERK in A375 cells = experiment: In Cell Western (ICW) assay, pERK in A375 cells; assay type: cell-based; conditions: Homo sapiens, A-375, 3 h treatment
Outline: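 After a 3 h compound treatment at 37 °C, fixed RKO or A375 cells were probed for phospho-ERK1/2 (T202/Y204), phospho-S6RP or phospho-AKT T308 and detected with a Eu-tagged anti-rabbit antibody (ex 340/em 615 nm), with Hoechst signal as the cell-number correction. Inhibition was referenced to DMSO, and IC50 values came from sigmoidal dose-response curves.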

PI3Kα = biological target: T1, PI3Kα (Homo sapiens, UniProt P42336); experiment: PI3 Kinase alpha TR-FRET assay; assay type: biochemical
T1 construct: made in house; host or cells: SF9 cells
Outline: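 Purified Sf9-expressed p110/p85α (5 ng) was pre-incubated with compound and PIP2 at rt, then ATP was added (PIP2 and ATP both 40 μM) for a 30 min reaction. PIP3 was detected by TR-FRET displacement of biotin-PIP3, and IC50 was taken from dose-response curves of the 665/615 nm emission ratio.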

A375 cells = experiment: XTT assay for cell viability, A375 cells; assay type: cell-based; conditions: Homo sapiens, A-375, 72 h
Outline: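 GI50 derived by sigmoidal dose-response fitting of proliferation normalised to DMSO control (100%). Readout: A450 after 2-3 h with XTT (1 mg/ml)/PMS (25 μM), following 72 h compound treatment at 37° C., 5% CO2 of cells plated at 1000-2000 per well the previous day.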

T1 sequence (P42336 whole entry, species assumed): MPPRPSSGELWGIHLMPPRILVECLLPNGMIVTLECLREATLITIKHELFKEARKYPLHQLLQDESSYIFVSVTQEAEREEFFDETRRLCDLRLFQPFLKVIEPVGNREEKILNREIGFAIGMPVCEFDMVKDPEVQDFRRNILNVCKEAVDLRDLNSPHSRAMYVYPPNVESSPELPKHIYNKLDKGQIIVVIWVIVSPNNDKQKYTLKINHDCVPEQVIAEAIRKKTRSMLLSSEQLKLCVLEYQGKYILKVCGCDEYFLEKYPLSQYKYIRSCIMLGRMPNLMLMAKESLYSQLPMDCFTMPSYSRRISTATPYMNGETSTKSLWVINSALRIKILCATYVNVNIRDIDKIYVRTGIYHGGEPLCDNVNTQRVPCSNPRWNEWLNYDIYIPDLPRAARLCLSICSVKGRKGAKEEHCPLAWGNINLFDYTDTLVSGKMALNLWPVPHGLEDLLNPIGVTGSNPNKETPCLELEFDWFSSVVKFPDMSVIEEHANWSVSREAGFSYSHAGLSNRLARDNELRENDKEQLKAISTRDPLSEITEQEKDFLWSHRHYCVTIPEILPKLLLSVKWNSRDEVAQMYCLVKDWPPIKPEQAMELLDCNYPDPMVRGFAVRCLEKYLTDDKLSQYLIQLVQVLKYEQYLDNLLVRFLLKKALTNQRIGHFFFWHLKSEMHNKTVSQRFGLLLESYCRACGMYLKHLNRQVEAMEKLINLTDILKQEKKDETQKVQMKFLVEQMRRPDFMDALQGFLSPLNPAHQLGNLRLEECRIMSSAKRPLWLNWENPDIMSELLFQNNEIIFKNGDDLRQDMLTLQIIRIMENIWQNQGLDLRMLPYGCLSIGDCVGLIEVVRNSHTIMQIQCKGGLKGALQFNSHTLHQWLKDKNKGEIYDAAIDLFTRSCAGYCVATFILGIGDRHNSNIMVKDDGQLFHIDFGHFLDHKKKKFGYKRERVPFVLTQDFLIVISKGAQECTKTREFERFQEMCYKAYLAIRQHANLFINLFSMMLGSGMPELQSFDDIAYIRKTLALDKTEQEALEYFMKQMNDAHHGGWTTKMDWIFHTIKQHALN
T1 sequence (P27986 whole entry partner, species assumed): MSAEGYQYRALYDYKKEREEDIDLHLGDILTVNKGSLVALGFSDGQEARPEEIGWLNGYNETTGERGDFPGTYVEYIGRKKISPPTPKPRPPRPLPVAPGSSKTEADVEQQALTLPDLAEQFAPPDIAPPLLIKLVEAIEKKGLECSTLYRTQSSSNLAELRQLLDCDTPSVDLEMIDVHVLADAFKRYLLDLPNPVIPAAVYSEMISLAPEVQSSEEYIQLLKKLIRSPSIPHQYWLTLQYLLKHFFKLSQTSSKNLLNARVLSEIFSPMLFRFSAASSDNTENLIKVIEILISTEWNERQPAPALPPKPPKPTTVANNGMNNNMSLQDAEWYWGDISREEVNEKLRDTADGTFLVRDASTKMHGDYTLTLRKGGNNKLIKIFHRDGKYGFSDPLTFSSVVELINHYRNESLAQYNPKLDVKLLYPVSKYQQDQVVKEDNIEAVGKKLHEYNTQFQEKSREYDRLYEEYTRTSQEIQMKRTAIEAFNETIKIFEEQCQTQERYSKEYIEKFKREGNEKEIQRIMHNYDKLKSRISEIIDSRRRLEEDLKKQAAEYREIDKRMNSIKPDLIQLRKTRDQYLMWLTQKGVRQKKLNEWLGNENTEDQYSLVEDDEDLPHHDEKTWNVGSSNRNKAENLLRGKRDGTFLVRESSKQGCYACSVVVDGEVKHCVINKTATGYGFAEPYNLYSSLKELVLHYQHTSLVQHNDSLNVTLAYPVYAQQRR

IC50 (pERK in A375 cells) [µM] | IC50 (PI3Kα) [µM] | IC50 (A375 cells) [µM] | SMILES
0.1 to 1 | 0.001 to 0.1 | 0.1 to 1 | C[C@H]1COCCN1c1nc(-c2cnc(N)cc2F)nc2ccc(-c3cccc(NS(=O)(=O)CCCF)c3F)nc12 [Example 129, (S)-N-(3-(2-(6-amino-4-fluoropyridin-3-yl)-4-(3-methylmorpholino)pyrido[3,2-d]pyrimidin-6-yl)-2-fIuorophenyl)-3-fluoropropane-1-sulfonamide]
0.001 to 0.1 | 1 to 10 | 0.001 to 0.1 | COc1cc(-c2cccc(NS(=O)(=O)CCCF)c2F)cc2c(N3CCOC[C@H]3C)nc(-c3cnc(N)c(F)c3)nc12 [Example 134, (R)-N-(3-(2-(6-amino-5-fluoropyridin-3-yl)-8-methoxy-4-(3-methylmorpholino)quinazolin-6-yl)-2-fluorophenyl)-3-fluoropropane-1-sulfonamide]
0.001 to 0.1 | 1 to 10 | 0.001 to 0.1 | COc1cc(-c2cccc(NS(=O)(=O)CCCF)c2F)cc2c(N3CCOC[C@H]3C)nc(-c3cnc(N)cc3F)nc12 [Example 135, (R)-N-(3-(2-(6-amino-4-fluoropyridin-3-yl)-8-methoxy-4-(3-methylmorpholino)quinazolin-6-yl)-2-fluorophenyl)-3-fluoropropane-1-sulfonamide]
